Reference: patent publication US6492137B1, “Response element compositions and assays employing same” (The Salk Institute for Biological Studies, priority 1989, dated 2002)

Assays:
[1] = target: T1, VDR (Homo sapiens, UniProt P11473); assay: Gel retardation DNA-binding assay with VDR-expressing COS cell extracts; design: expressed in transfected cells; host or cells: COS cells (whole-cell extract); details: VDR COS cell extract
T1 sequence (P11473 1-427): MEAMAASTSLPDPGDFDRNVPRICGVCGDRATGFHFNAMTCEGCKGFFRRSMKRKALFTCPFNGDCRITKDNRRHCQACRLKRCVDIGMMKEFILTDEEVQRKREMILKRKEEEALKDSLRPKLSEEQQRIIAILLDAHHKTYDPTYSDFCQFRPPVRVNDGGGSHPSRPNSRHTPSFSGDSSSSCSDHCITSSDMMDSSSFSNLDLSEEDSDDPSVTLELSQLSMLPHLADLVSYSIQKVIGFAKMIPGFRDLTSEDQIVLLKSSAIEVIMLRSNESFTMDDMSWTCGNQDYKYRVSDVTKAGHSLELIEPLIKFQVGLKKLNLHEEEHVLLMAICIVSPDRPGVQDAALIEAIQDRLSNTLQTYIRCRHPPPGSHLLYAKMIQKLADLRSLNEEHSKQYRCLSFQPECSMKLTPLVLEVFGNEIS
Description: For DNA binding assays, COS cells were cultured in DMEM with 10% calf bovine serum and transfected by the calcium phosphate method with 20 μg of the pCMX receptor expression plasmid for 6 hours followed by a glycerol shock. After incubating the transfected COS cells for another 48 hours, the cells were harvested to prepare extracts for the DNA binding assay, carried out as described by Damm et al., Nature 339: 593-597 (1989). The extracts were made in 20 mM HEPES (pH 7.4), 0.4 M KCl, 2 mM DTT and 20% glycerol. A similar method was employed to prepare a whole cell extract from F9 stem cells. For the binding, 5 μg (COS) or 10 μg (F9) of proteins was incubated on ice for 20 minutes, first in 20 mM HEPES, 80 mM KCl, 1 mM DTT, 0.1% NP40, 2.5 μg of poly dI/dC, and 10% glycerol (cold competitor oligonucleotides, when included, were added during this pre-incubation period). Then 40 fmole of ^32P-labeled oligonucleotide probe (1-2×10^5 cpm, prepared by filling-in reaction using Klenow polymerase in the presence of α-^32P-dCTP) was added to the reaction mixture, followed by incubation at room temperature for 30 minutes. The receptor-DNA complexes were resolved by electrophoresis through 5% polyacrylamide gel containing 5% glycerol at 6 V/cm at room temperature.
Finally, in vitro DNA-binding assays were carried out with COS cell extracts containing one of these receptor proteins.

[2] = target: T2, RARα (Homo sapiens, UniProt P10276); assay: ΔSV-CAT reporter cotransfection assay in CV-1 cells with RARα expression plasmid, ±RA; type: cell-based; design: expressed in transfected cells; host or cells: CV-1 (monkey kidney); details: RA 1 μM
T2 sequence (P10276 1-462): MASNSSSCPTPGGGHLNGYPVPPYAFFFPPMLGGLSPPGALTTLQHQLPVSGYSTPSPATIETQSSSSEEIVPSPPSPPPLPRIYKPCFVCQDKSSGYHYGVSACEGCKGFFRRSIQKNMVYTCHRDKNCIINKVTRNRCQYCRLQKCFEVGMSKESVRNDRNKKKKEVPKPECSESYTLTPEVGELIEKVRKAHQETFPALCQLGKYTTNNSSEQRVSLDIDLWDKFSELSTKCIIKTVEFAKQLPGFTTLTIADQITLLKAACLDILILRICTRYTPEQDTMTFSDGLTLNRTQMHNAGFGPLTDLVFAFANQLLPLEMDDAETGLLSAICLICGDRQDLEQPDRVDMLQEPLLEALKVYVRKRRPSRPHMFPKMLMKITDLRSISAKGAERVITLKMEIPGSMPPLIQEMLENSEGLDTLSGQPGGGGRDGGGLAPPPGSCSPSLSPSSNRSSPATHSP
From the text: Receptor expression plasmids used in the following cotransfection assays have been described previously (pRShTRβ [see Thompson, et al., Proc. Natl. Acad. Sci. U.S.A. 86: 3494-3498 (1989)]; pRShRARα [see Giguere, et al., Nature 330: 624-629 (1987)]; pRShRARβ and pRshRARγ [see Ishikawa, et al., Mol. Endocrinol, 4: 837-844 (1990)]; and pRShVDR, [Schule, et al., Cell 61: 497-504 (1990)]. A basal reporter plasmid ΔSV-CAT was constructed by replacing the TK promoter in TK-CAT [Damm, et al., Nature 339: 593-597 (1989)] with the SphI-HindIII fragment of the SV40 early promoter. All of the recombinant CAT reporter plasmids used herein harbor a single copy of the indicated oligonucleotides at the unique HindIII site upstream of the SV40 promoter. Identity of the inserted oligonucleotides was confirmed by sequencing. To improve production of receptor proteins in COS cells, a new eukaryotic expression vector pCMX was prepared by modifying the plasmid CDM8 [Seed, B., Nature 329: 840-842 (1987)]. The CDM8 was cut with MluI and StuI in order to release the DNA fragment encoding the CMV/T7 promoter, SV40 small t intron/poly A signal, polyoma virus enhancer/origin, and SV40 enhancer/origin. The resulting fragment was ligated to a larger fragment of PvuII-digested PUC19. An internal deletion was introduced between unique BamHI and BclI sites present in the DCM8 portion. The stuffer sequence flanked by XbaI sites was replaced with a synthetic polylinker coding for 5′-KpnI/Asp718-EcoRV-BamHI -MscI-NheI-3′, followed by a stretch of 5′-[…]-3′ (SEQ ID NO:48) which can function as a universal termination signal for protein translation. The coding sequence of the luciferase [de Wet, et al., Mol. Cell. Biol. 7: 725-737 (1987)] and human TRβ, RARα, and VDR was placed in the polylinker region of the pCMX, generating pCMX-LUC, Pcmx-Htrβ, pCMX-hRARα, and pCMX-hVDR, respectively. The translation start site of the RARα was modified to […] by attaching the synthetic linker encoding a consensus translation start signal [Hollenberg, et al., Cell 55: 899-906 (1988)]. […]

DR-3: perfect tandem repeat of AGGTCA hexamers separated by 3 nucleotides (SEQ ID NO:25) (AGCTTCAGGTCAAGGAGGTCAGAGAGCT; DNA, backbone not given here; double-stranded DNA response element with agct overhangs, cloned into reporter)
VDR binding to labeled oligonucleotide probe [1]: specific protein-DNA complex | RA response (in words) [2]: clear activity
